Test results published in PMC9034499, “RORγt agonist enhances anti-PD-1 therapy by promoting monocyte-derived dendritic cells through CXCL10 in cancers” (Journal of Experimental & Clinical Cancer Research : CR, 2022).
Where two headings read alike, the source gives them in different places.

Tests used:
[1] = system: Th1 cells; assay: Th1 specificity, IFN-γ by flow cytometry; assay type: cell-based, C57BL/6 wild-type mice; conditions: compared with vehicle alone
From the text: (§1) To confirm the in vitro specificity of 8-074, splenocytes from C57BL/6 wild-type mice were activated by plate-bound anti-CD3 and anti-CD28 antibodies and polarized with anti-IL-4 and IL-12 to obtain Th1 cells. IFN-γ, a signature cytokine of Th1 cells, was not affected by LYC-55716 or 8-074 compared with vehicle alone (Fig. 2j, Fig. S2g).

[2] = system: mutated RORγt protein at key binding sites; assay: Biacore binding to mutated RORγt LBD protein; design: species or system human
From the text: Human nuclear receptor RORγt (residues 263–509)-GGG-SRC1 (SRC1 sequence: EKHKILHRLLQDS, Sangon Biotech, Shanghai). RORγt LBD was cloned in pET28a. Key residue mutations of RORγt LBD (such as PHE388, LEU391, CYS393, LEU396, ILE397, ILE400, CYS320, ALA321, LEU324, MET358, and PHE388) with LYC-55716 were cloned in pET28a. Key residue mutations of RORγt LBD (MET365, ALA368, PHE401, ILE400, ILE397, LEU396, TRP317, CYS320, LEU324, ALA327, TYR330, VAL331, MET358, and VAL361) with 8-074 were cloned in pET28a. The proteins were expressed in E. coli strain DE3. Then, the transformed E. coli culture was grown at 37 °C with 30 μg/mL Kanamycin LB (Luria–Bertani). When the OD600 of LB medium reached 0.6, the temperature was changed to 16 °C, and isopropyl-β-D-thiogalactopyranoside (IPTG, Beyotime, Shanghai, China) was added at a final concentration of 0.4 mM to induce protein expression for 16 h. After 16 h, the pellet was collected after centrifugation at 4,000 rpm for 15 min at 4 °C. […]
The RORγt protein was immobilized on a CM5 chip (GE Health, Chicago, USA) using Biaocre 8 K. A sensogram was obtained using different serial concentrations of 8-074 (5000 nM, 2500 nM, 1250 nM, 625 nM, 312.5 nM, 156.25 nM, 78.125 nM, and 39.0625 nM). […] Data were analyzed using Biacore Evaluation Software.

[3] = biological target: T1, RORγt (Homo sapiens, UniProt P51449); assay: RORγt dual FRET assay; assay type: biochemical
T1 sequence (P51449 263-518 limits assumed): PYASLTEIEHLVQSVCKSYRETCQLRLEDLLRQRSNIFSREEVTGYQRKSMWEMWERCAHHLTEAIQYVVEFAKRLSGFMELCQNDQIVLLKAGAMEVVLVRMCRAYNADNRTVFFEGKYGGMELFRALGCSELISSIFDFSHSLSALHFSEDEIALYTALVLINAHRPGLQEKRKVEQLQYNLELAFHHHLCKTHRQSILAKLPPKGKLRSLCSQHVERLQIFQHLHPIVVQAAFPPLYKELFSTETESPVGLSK
T1 sequence (Q15788 676-700 partner limits assumed): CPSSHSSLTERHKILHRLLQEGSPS
Method: The assay was performed according to a previous study. The plates were incubated for 1 h at room temperature and then read on Envision in LANCE mode configured for the europeum-APC labels.

[4] = system: B cells; assay: B cell activation markers by qPCR; assay type: cell-based; conditions: compared with the vehicle
Method: (§2) The intracellular cytokines by TILs or in vitro differentiated T helper cells were quantified after restimulation with PMA plus ionomycin in the presence of GolgiStop for 6 h. The total RNA was isolated using the improved TRizol-based (Sigma, Darmstadt, Germany) method for qPCR analysis, and the mRNA expression was analyzed using a StepOnePlus (Life Technologies, Carlsbad, USA) real-time PCR instrument using housekeeping gene β-actin and Gapdh internal standards. qPCR was performed using A Power SYBR Green PCR Master Mix (Accurate Biology, Hunan, China) and two-cycle amplification for 40 cycles followed by the melting curve. The sequence of primers is listed in the Additional file 6: Table S1. In addition, the cytokines were quantified in cell-free culture supernatants using enzymelinked immunosorbent assay (ELISA) kit (the optical density (OD) value was measured at 450 nm, using 570 nm or 630 nm as the reference wavelengths, Multisciences, Hangzhou, China). The kit was used according to the manufacturer’s instructions.
as §1

[5] = system: macrophages; assay: Macrophage markers by qPCR; assay type: cell-based; conditions: compared with vehicle
Method: as §2, §1

[6] = system: mouse Tc17 cells; assay: Mouse Th17/Tc17 differentiation dose-response (flow cytometry); assay type: cell-based; conditions: for EC50: Mus musculus
[7] = fit of dose-response curve Fig. 1i

CCS(=O)(=O)c1ccc(CC(=O)Nc2ccc(-c3ccc(CC(C)C)c(C#N)c3)c(C(F)(F)F)c2)cc1 [8-074]
IFN-γ, signature cytokine of Th1 cells [1]: not affected
binding affinity with the mutated RORγt protein [2]: no binding affinity
EC50 [3]: 19.9 nM
RORγt dual FRET %max ([3]; maximal activation): 199%
gene expression of activated B cell markers Cd19 and Cd86 [4]: no significant change
gene expression of macrophage markers Arg1, Il-1β, Il-6, and Il-10 [5]: no significant change
EC50 ([6]; 8-074 0.001 to 320 nM, Th17% by flow cytometry, read-out: EC50, stimulation of mouse Tc17 cells): 11.2 nM
EC50 ([6]; Fig. S2b summary, read-out: mTh17): 11.2 nM
HillSlope [6, 7]: 1.006
Span [6, 7]: 111.9
